Key:
[1] = target: Receptor-type tyrosine-protein phosphatase F (Homo sapiens, UniProt P10586); assay: Inhibition of human recombinant LAR expressed in Escherichia coli TB1 using p-nitrophenyl phosphate as substrate after 1 hr
[2] = Inhibition of yeast LMW-PTP1 expressed in Escherichia coli TB1 using p-nitrophenyl phosphate as substrate after 1 hr; set-up: species or system Saccharomyces cerevisiae
Mus musculus = species on record: Mus musculus; assay: Antidiabetic activity in normal Swiss mouse assessed as reduction of blood glucose level by glucose tolerance test relative to control; assay type: functional; set-up: scale not given: the % may be the effect or the level left
Rattus norvegicus [3] = assay: Antidiabetic activity in STZ-nicotinamide diabetic Wistar rat T2DM model assessed as decrease in blood glucose level at 50 mg/kg, po after 5 hrs by enzymatic glucose oxidase method relative to control; assay type: functional; set-up: scale not given: the % may be the effect or the level left
Rattus norvegicus [4] = assay: Antidiabetic activity in STZ-nicotinamide diabetic Wistar rat T2DM model assessed as decrease in blood glucose level at 50 mg/kg, po after 1 hr by enzymatic glucose oxidase method relative to control; assay type: functional; set-up: scale not given: the % may be the effect or the level left
Rattus norvegicus [5] = assay: Antidiabetic activity in STZ-nicotinamide diabetic Wistar rat T2DM model assessed as decrease in blood glucose level at 50 mg/kg, po after 3 hrs by enzymatic glucose oxidase method relative to control; assay type: functional; set-up: scale not given: the % may be the effect or the level left
Rattus norvegicus [6] = assay: Antidiabetic activity in STZ-nicotinamide diabetic Wistar rat T2DM model assessed as decrease in blood glucose level at 50 mg/kg, po after 7 hrs by enzymatic glucose oxidase method relative to control; assay type: functional; set-up: scale not given: the % may be the effect or the level left
[7] = target: T1, Low molecular weight phosphotyrosine protein phosphatase (Homo sapiens, UniProt P24666); assay: Inhibition of human recombinant LMW-PTP2 expressed in Escherichia coli TB1 using p-nitrophenyl phosphate as substrate after 1 hr
T1 sequence (P24666 whole entry): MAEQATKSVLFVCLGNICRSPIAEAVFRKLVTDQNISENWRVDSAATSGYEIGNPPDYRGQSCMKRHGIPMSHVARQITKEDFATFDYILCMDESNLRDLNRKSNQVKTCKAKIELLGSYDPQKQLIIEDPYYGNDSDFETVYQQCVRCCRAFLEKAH

[8] = target: T1, Low molecular weight phosphotyrosine protein phosphatase; assay: Inhibition of human recombinant LMW-PTP1 expressed in Escherichia coli TB1 using p-nitrophenyl phosphate as substrate after 1 hr
[9] = target: T2, Tyrosine-protein phosphatase non-receptor type 1 (Homo sapiens, UniProt P18031); assay: Mixed type inhibition of human recombinant PTP-1B expressed in Escherichia coli TB1 using p-nitrophenyl phosphate as substrate
T2 sequence (P18031 whole entry): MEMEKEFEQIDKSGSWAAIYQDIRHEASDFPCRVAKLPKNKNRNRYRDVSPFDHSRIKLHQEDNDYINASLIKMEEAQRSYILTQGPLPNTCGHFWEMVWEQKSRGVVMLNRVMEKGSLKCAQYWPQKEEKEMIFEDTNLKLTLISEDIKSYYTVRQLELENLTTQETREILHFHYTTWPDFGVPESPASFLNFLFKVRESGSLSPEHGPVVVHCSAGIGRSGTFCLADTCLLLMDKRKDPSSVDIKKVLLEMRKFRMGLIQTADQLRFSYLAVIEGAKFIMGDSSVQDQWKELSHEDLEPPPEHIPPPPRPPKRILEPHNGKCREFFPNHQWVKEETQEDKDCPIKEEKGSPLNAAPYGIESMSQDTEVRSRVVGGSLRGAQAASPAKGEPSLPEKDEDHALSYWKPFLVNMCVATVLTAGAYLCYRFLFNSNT

[10] = target: T2, Tyrosine-protein phosphatase non-receptor type 1
Description: Inhibition of human recombinant PTP-1B expressed in Escherichia coli TB1 using p-nitrophenyl phosphate as substrate after 1 hr

Rattus norvegicus [11] = assay: Antidiabetic activity in STZ-nicotinamide diabetic Wistar rat T2DM model assessed as decrease in blood glucose level at 5 mg/kg, po after 7 hrs by enzymatic glucose oxidase method relative to control; assay type: functional; set-up: scale not given: the % may be the effect or the level left
Rattus norvegicus [12] = assay: Antidiabetic activity in STZ-nicotinamide diabetic Wistar rat T2DM model assessed as decrease in blood glucose level at 5 mg/kg, po after 3 hrs by enzymatic glucose oxidase method relative to control; assay type: functional; set-up: scale not given: the % may be the effect or the level left
Rattus norvegicus [13] = assay: Antidiabetic activity in STZ-nicotinamide diabetic Wistar rat T2DM model assessed as decrease in blood glucose level at 5 mg/kg, po after 1 hr by enzymatic glucose oxidase method relative to control; assay type: functional; set-up: scale not given: the % may be the effect or the level left
Rattus norvegicus [14] = assay: Antidiabetic activity in STZ-nicotinamide diabetic Wistar rat T2DM model assessed as decrease in blood glucose level at 5 mg/kg, po after 5 hrs by enzymatic glucose oxidase method relative to control; assay type: functional; set-up: scale not given: the % may be the effect or the level left

Sequence of Receptor-type tyrosine-protein phosphatase F (P10586 whole entry): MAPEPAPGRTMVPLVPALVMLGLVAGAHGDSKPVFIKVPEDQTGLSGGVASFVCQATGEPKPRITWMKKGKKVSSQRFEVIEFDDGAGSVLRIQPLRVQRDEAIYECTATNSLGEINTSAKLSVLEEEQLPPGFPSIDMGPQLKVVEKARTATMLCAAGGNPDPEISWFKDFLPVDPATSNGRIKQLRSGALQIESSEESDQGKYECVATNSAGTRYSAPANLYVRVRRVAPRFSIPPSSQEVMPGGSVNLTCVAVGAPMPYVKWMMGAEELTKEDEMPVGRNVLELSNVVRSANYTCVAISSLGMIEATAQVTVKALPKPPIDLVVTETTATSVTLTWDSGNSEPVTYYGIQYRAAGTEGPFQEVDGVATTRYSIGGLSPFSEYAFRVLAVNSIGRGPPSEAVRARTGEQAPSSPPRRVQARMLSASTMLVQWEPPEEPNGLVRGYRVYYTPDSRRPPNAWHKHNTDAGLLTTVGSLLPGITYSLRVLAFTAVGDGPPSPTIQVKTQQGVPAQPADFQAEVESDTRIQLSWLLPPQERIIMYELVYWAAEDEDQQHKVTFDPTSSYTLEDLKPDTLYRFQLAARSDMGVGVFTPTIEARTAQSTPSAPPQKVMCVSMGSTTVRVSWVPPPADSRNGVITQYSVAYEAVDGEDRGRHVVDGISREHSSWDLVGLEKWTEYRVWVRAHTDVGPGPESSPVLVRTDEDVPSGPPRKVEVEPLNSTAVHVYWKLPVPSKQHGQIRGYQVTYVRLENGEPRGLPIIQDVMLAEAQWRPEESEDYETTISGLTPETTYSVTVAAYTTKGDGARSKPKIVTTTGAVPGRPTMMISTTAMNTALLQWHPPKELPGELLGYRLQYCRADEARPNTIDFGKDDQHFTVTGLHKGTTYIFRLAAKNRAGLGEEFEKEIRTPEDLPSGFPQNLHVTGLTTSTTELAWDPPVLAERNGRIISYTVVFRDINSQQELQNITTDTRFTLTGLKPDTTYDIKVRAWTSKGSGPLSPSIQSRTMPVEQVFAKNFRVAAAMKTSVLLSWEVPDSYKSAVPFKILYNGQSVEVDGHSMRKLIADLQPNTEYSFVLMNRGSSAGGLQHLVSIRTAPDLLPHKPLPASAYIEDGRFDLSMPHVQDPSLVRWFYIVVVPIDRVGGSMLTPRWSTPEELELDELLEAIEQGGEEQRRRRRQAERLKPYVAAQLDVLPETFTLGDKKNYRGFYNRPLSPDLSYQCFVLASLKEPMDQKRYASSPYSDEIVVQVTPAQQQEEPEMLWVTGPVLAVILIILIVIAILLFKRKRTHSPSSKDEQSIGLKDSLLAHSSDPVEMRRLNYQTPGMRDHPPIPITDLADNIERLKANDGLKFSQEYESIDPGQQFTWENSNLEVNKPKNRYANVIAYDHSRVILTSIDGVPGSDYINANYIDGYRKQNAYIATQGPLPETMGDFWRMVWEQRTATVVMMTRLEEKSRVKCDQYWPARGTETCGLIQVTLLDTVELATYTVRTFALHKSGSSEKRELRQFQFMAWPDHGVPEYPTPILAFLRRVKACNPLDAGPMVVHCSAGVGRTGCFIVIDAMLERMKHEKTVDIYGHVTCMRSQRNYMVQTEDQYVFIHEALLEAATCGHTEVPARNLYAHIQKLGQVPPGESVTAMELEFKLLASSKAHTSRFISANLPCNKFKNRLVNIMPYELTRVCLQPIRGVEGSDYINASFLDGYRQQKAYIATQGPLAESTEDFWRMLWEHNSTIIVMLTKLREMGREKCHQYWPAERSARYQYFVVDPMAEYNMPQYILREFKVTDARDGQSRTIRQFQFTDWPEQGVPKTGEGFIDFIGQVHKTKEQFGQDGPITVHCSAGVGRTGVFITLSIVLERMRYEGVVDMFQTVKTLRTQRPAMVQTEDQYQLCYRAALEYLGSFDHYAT

## CC1(C)CC[C@]2(C(=O)O)CC[C@]3(C)C(=CC[C@@H]4[C@@]5(C)CC[C@H](O)C(C)(C)[C@@H]5CC[C@]43C)[C@@H]2C1 [OLEANOLIC_ACID]
[1]
  IC50: 11.8 µM
[2]
  IC50: 44.8 µM
Mus musculus
  Activity: 22%
Rattus norvegicus [3]
  Activity: 23.2%
Rattus norvegicus [4]
  Activity: 26.9%
Rattus norvegicus [5]
  Activity: 14.1%
Rattus norvegicus [6]
  Activity: 21.9%
[7]
  IC50: 22.9 µM
[8]
  IC50: 21.2 µM

## CC1(C)C=C2[C@H]3CC[C@@H]4[C@@]5(C)CCC(=O)C(C)(C)[C@@H]5CC[C@@]4(C)[C@]3(C)CC[C@@]2(C(=O)O)CC1 [MORONIC ACID]
[1]
  IC50: 45.6 µM
[2]
  IC50: 51.2 µM
Rattus norvegicus [3]
  Activity: 15.3%
Rattus norvegicus [4]
  Activity: 17.3%
Rattus norvegicus [5]
  Activity: 26.3%
[9]
  Ki: 8 µM
Rattus norvegicus [6]
  Activity: 29.2%
[7]
  IC50: 27.4 µM
[10]
  IC50: 13.2 µM
[8]
  IC50: 20.6 µM

## C[C@H]1[C@H](C)CC[C@]2(C(=O)O)CC[C@]3(C)C(=CC[C@@H]4[C@@]5(C)CC[C@H](O)C(C)(C)[C@@H]5CC[C@]43C)[C@H]12 [URSOLIC ACID]
[1]
  IC50: 3.8 µM
[2]
  IC50: 20 µM
Rattus norvegicus [3]
  Activity: 25.7%
Rattus norvegicus [4]
  Activity: 13.5%
Rattus norvegicus [5]
  Activity: 24.4%
Rattus norvegicus [6]
  Activity: 38%
[7]
  IC50: 11.1 µM
[8]
  IC50: 7.2 µM

## COc1ccc(Cl)cc1C(=O)NCCc1ccc(S(=O)(=O)NC(=O)NC2CCCCC2)cc1 [GLYBURIDE]
Rattus norvegicus [11]
  Activity: 43.6%
Rattus norvegicus [12]
  Activity: 36.3%
Rattus norvegicus [13]
  Activity: 20.4%
Rattus norvegicus [14]
  Activity: 37.5%

## CC1(C)C=C2[C@H]3CC[C@@H]4[C@@]5(C)CC[C@H](O)C(C)(C)[C@@H]5CC[C@@]4(C)[C@]3(C)CC[C@@]2(C(=O)O)CC1 [MOROLIC ACID]
[1]
  IC50: 35.9 µM
Rattus norvegicus [3]
  Activity: 8.77%
Rattus norvegicus [4]
  Activity: 1.54%
Rattus norvegicus [5]
  Activity: 15.2%
Rattus norvegicus [6]
  Activity: 39.2%
[7]
  IC50: 30.6 µM
[8]
  IC50: 13.4 µM
